Source: PMC3005334 (Cell, 2010)

What was measured:
Erg4 = Erg4 (Saccharomyces cerevisiae, UniProt P25340); assay type: binding; settings: in vivo bound, LC-MS; natural synthesizing enzyme
103 protein kinases = assay: Affinity purification LC-MS profiling of the panel of yeast protein kinases; assay type: binding, Saccharomyces cerevisiae; settings: of 103 kinases analyzed
Ypk1 [1] = target: T1, Ypk1 (Saccharomyces cerevisiae, UniProt P12688); assay: Affinity purification of tagged protein kinase and LC-MS of bound metabolites; assay type: binding; settings: identified against pure standards
T1 sequence (P12688 1-680): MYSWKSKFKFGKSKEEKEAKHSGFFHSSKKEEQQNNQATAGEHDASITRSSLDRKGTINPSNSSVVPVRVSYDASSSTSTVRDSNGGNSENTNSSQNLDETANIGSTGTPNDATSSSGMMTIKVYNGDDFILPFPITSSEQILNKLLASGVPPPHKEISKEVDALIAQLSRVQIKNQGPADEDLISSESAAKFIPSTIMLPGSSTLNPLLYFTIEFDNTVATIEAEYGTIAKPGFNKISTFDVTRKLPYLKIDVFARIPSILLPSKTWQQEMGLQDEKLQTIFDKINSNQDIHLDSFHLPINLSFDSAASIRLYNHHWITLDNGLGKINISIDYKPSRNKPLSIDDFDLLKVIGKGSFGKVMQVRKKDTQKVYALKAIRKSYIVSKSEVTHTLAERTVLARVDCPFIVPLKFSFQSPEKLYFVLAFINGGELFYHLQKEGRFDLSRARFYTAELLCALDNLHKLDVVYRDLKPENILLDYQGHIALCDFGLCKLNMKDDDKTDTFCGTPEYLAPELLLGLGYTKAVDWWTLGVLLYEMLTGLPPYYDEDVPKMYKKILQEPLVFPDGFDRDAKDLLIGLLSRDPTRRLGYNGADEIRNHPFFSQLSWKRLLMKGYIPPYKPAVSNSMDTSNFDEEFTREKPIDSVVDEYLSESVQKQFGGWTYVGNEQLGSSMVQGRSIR

Ypk1, Hal5, and Rck2 = assay: In vitro small metabolite-protein binding assay; parameters: species or system Saccharomyces cerevisiae; settings: fixed amount of protein; indicates specific binding
Ypk1 [2] = target: T1, Ypk1; assay: In vitro kinase activity assay; assay type: biochemical
Ssk22 = target: T2, Ssk22 (Saccharomyces cerevisiae, UniProt P25390); assay: Ssk22 protein levels purified from erg4Δ cells with exogenous ergosterol; assay type: cell-based; settings: erg4Δ mutant strain, exogenous ergosterol added to the medium
T2 sequence (P25390 1-1331): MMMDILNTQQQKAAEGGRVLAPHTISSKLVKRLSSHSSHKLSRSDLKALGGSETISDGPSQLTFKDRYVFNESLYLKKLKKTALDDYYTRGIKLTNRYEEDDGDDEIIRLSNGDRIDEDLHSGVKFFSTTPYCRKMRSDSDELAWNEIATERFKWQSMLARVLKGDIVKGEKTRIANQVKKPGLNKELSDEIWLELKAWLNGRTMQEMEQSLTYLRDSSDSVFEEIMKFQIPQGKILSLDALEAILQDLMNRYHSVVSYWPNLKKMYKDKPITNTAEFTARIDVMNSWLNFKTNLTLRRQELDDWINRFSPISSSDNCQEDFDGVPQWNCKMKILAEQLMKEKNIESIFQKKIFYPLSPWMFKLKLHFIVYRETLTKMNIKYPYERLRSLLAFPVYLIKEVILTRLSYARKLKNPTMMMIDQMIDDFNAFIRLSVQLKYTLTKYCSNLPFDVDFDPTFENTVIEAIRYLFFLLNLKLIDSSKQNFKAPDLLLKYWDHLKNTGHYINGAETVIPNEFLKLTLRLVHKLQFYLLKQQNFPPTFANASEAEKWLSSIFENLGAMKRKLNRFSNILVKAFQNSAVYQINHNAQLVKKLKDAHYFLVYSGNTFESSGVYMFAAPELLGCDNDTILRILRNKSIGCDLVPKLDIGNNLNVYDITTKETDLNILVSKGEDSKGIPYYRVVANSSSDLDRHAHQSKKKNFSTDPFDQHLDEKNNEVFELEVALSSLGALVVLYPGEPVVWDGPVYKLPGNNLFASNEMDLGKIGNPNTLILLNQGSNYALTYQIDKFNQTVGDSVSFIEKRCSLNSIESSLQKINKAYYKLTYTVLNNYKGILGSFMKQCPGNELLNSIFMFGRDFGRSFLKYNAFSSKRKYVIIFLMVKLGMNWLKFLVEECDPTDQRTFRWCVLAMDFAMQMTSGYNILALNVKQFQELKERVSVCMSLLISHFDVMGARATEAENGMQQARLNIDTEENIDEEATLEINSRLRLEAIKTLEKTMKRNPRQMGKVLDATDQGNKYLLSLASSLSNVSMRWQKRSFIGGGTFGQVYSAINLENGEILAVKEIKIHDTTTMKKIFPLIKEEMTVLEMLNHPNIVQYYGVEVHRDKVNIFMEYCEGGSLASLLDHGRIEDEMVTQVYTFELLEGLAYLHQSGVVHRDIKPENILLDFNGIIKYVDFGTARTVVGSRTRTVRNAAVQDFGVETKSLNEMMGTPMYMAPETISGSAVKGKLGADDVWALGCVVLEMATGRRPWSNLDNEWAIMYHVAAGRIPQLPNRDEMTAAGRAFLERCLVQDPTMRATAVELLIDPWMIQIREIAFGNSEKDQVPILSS

[3] = test system: 21 ergosterol biosynthetic proteins (Erg proteins); settings: of 21 Erg enzymes, above the control

Sequence of Erg4 (P25340 whole entry): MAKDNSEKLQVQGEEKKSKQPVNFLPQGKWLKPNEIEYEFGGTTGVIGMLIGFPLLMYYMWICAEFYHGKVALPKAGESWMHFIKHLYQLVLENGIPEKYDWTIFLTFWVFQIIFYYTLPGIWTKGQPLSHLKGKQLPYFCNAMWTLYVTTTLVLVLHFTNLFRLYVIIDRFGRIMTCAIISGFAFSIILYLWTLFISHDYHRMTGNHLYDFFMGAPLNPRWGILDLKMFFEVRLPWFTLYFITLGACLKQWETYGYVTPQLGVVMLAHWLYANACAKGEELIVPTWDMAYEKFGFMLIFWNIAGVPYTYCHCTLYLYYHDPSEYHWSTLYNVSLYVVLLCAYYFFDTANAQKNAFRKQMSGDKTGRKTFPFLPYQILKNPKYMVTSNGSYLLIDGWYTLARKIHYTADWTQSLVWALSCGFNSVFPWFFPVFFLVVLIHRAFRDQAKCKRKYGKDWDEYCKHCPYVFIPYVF

## CC(C)[C@@H](C)/C=C/[C@@H](C)[C@H]1CC[C@H]2C3=CC=C4C[C@@H](O)CC[C@]4(C)[C@H]3CC[C@]12C [ergosterol]
Erg4
  binding to Erg4: bound
103 protein kinases
  number of protein kinases associated with the metabolite: 15
Ypk1 [1]
  metabolite extracted from Ypk1: bound metabolite
Ypk1, Hal5, and Rck2
  shape of binding curve over increasing free ergosterol: saturable curve
Ypk1 [2]; Ypk1 from erg4Δ strain lacking ergosterol
  Ypk1 in vitro kinase activity with increasing concentrations of ergosterol: could not be stimulated
Ypk1 [2]; Ypk1 from wild type cells grown in the presence of 0.4 mM ergosterol
  Ypk1 in vitro kinase activity with increasing concentrations of ergosterol: could be stimulated to a similar extent
Ssk22
  Ssk22 protein levels: restored Ssk22 levels
[3]
  number of Erg proteins the metabolite co-purified with: 5
